From patent US10857110B2, “Antibacterial compounds” (CONSEJO NACIONAL DE INVESTIGACIONES CIENTÍFICAS Y TÉCNICAS …, priority 2016, dated 2020)
Converted amounts (≈) assume the structure as drawn.

Tests used:
Experiment in all cases: MIC/MBC antibiotic sensitivity (CLSI)
[1] = test system: Achromobacter xylosaxidans (HNA001); format: cell-based, Achromobacter xylosoxidans; details: Achromobacter xylosaxidans (HNA001)
Protocol: (§1) The new compounds of the invention were synthesized following the general method of preparation (Tetrahedron, 2001, 57, 1671-1675), from the reaction between an intermediary compound of the acyl thiourea and HgCl2 in presence of trimethylamine. The products were adequately characterized regarding its chemistry. The antibacterial activity of the new compounds was assayed against two Gram-positive reference strains: Staphylococcus aureus (ATCC6538) and Bacillus cereus (ATCC10876), a fermenting Gram-negative strain: Escherichia coli (ATCC25922), and 26 non-fermenting Gram-negative isolates, including 3 reference strains: Pseudomonas aeruginosa (PAO1), Bordetella bronchiseptica (9.73H+), and Inquilinus limosus (DSM16000), and 23 isolates recovered from patients suffering from cystic fibrosis, including one Achromobacter xylosoxidans isolate, and 22 isolates belonging to the Burkholderia cepacia complex. The later were selected because they presented resistance to a high number of antimicrobial compounds, among a panel of 125 clinical isolates previously analyzed for its resistance against 17 antimicrobial compounds (1,2). The antibiotic sensitivity studies were performed by applying two quantitative methods which allow to determine the minimum inhibitory concentration (MIC) and the minimum bactericidal concentration (MBC).
(§2) The compounds obtained in Examples 1 and 2 were assayed against 23 isolates recovered from the sputum of patients suffering from cystic fibrosis being treated at the Sor Maria Ludovica Children Hospital (La Plata, Buenos Aires, Argentina). Nineteen of these isolates were selected for being highly resistant to most of the antimicrobial agents of clinical use from a panel of 125 isolates previously characterized in Martina et al. (1). Reference strains were also included: Gram (+) bacteria: B. cereus and S. aureus, fermenting Gram (−) bacteria: E. coli, and non-fermenting Gram (−) bacteria: Inquilinus limosus (DSM16000), B. bronchiseptica, and Pseudomonas aeruginosa (PAO1). The antibiotic sensitivity studies were performed applying two quantitative methods which allow to determine the minimum inhibitory concentration (MIC) and the minimum bactericidal concentration (MBC) according to the criteria established by the Clinical and Laboratory Standards Institute (CLSI) (4). For comparative purposes, three antibiotics commonly used in the treatment of pulmonary infections in cystic fibrosis patients were included in the study: tobramycin, ceftazidime and meropenem.

[2] = test system: B. cenacepacia (FQC2524); format: cell-based, B. cenocepacia; details: Burkholderia cenocepacia
Protocol: as §1, §2

[3] = test system: B. contaminans (HNBC001); format: cell-based
Protocol: as §1, §2

[4] = test system: Burkholderia seminalis (CBC 040); format: cell-based; details: Burkholderia seminalis (CBC 040)
Protocol: as §1, §2

[5] = test system: Burkholderia cenocepacia (CBC 036); format: cell-based; details: Burkholderia cenocepacia (CBC 036)
Protocol: as §1, §2

[6] = test system: Burkholderia cenocepacia (CBC 023); format: cell-based; details: Burkholderia cenocepacia (CBC 023)
Protocol: as §1, §2

[7] = test system: Burkholderia cenocepacia (CBC 024); format: cell-based; details: Burkholderia cenocepacia (CBC 024)
Protocol: as §1, §2

[8] = test system: Burkholderia cenocepacia (CBC 031); format: cell-based; details: Burkholderia cenocepacia (CBC 031)
Protocol: as §1, §2

[9] = test system: Burkholderia seminalis (CBC 042); format: cell-based; details: Burkholderia seminalis (CBC 042)
Protocol: as §1, §2

[10] = test system: Pseudomonas aeruginosa (PAO1); format: cell-based; details: Pseudomonas aeruginosa, P. aeruginosa (PAO1)
Protocol: as §1, §2

[11] = test system: Burkholderia cepacia (CBC 010); format: cell-based; details: Burkholderia cepacia (CBC 010)
Protocol: as §1, §2

[12] = test system: Burkholderia cenocepacia (CBC 029); format: cell-based; details: Burkholderia cenocepacia (CBC 029)
Protocol: as §1, §2

[13] = test system: Burkholderia multivorans (CBC 018); format: cell-based; details: Burkholderia multivorans (CBC 018)
Protocol: as §1, §2

[14] = test system: Burkholderia multivorans (CBC 021); format: cell-based; details: Burkholderia multivorans (CBC 021)
Protocol: as §1, §2

[15] = test system: Burkholderia cenocepacia (CBC 035); format: cell-based; details: Burkholderia cenocepacia (CBC 035)
Protocol: as §1, §2

[16] = test system: Staphylococcus aureus (ATCC6538); format: cell-based
Protocol: as §1, §2

[17] = test system: Burkholderia multivorans (CBC 019); format: cell-based; details: Burkholderia multivorans (CBC 019)
Protocol: as §1, §2

[18] = test system: Burkholderia multivorans (CBC 022); format: cell-based; details: Burkholderia multivorans (CBC 022)
Protocol: as §1, §2

[19] = test system: Bacillus cereus (ATCC10876); format: cell-based
Protocol: as §1, §2

[20] = test system: Inquilinus limosus (DSM16000); format: cell-based; details: read-out: MIC
Protocol: as §1, §2

[21] = test system: Burkholderia cenocepacia (HE001); format: cell-based; details: Burkholderia cenocepacia (HE001)
Protocol: as §1, §2

[22] = test system: Escherichia coli (ATCC25922); format: cell-based
Protocol: as §1, §2

[23] = test system: Burkholderia multivorans (CBC 020); format: cell-based; details: Burkholderia multivorans (CBC 020)
Protocol: as §1, §2

[24] = test system: Burkholderia cepacia (CBC 011); format: cell-based; details: Burkholderia cepacia (CBC 011)
Protocol: as §1, §2

- MIC ([1]; read-out: MIC): 7.8 µg/mL (≈ 11.7 µM)
- MIC ([2]; read-out: MIC): 15.6 µg/mL (≈ 23.5 µM)
- MIC ([3]; read-out: MIC): 15.6 µg/mL (≈ 23.5 µM)
- MIC ([4]; read-out: MIC): 61.2 µg/mL (≈ 92.2 µM)
- MIC ([5]; read-out: MIC): 66.4 µg/mL (≈ 100 µM)
- MIC ([6]; read-out: MIC): 66.4 µg/mL (≈ 100 µM)
- MIC ([7]; read-out: MIC): 66.4 µg/mL (≈ 100 µM)
- MIC ([8]; read-out: MIC): 31.2 µg/mL (≈ 47.1 µM)
- MIC ([9]; read-out: MIC): 33.2 µg/mL (≈ 50 µM)
- MIC ([10]; read-out: MIC): 33.2 µg/mL (≈ 50 µM)
- MIC ([11]; read-out: MIC): 133 µg/mL (≈ 200 µM)
- MIC ([12]; read-out: MIC): > 133 µg/mL
- MIC ([13]; read-out: MIC): 66.4 µg/mL (≈ 100 µM)
- MIC ([14]; read-out: MIC): 66.4 µg/mL (≈ 100 µM)
- MIC ([15]; read-out: MIC): 66.4 µg/mL (≈ 100 µM)
- MIC ([16]; Staphylococcus aureus, S. aureus (ATCC6538), read-out: MIC): 7.81 µg/mL (≈ 11.8 µM)
- MIC ([17]; read-out: MIC): 66.4 µg/mL (≈ 100 µM)
- MIC ([18]; read-out: MIC): 133 µg/mL (≈ 200 µM)
- MIC ([19]; read-out: MIC): 66.4 µg/mL (≈ 100 µM)
- MIC [20]: 61.2 µg/mL (≈ 92.2 µM)
- MIC ([21]; read-out: MIC): 61.2 µg/mL (≈ 92.2 µM)
- MIC ([22]; Escherichia coli, E. coli (ATCC25922), read-out: MIC): 66.4 µg/mL (≈ 100 µM)
- MIC ([23]; read-out: MIC): 66.4 µg/mL (≈ 100 µM)
- MIC ([24]; read-out: MIC): 66.4 µg/mL (≈ 100 µM)
SMILES: O=C(NC(=Nc1c(Br)cc(F)cc1Br)Nc1c(F)cc(F)cc1Br)C12CC3CC(CC(C3)C1)C2 [H-DBF, N—(N-(2-bromo-4,6-difluorophenyl)-N′-(2,6-dibromo-4-fluorophenyl)carbamimidoyl) adamantane-1-carboxamide]
- MBC [1]: 31.2 µg/mL (≈ 47.1 µM)
- MBC [2]: 31.2 µg/mL (≈ 47.1 µM)
- MBC [3]: 31.2 µg/mL (≈ 47.1 µM)
- MBC [4]: > 61.2 µg/mL
- MBC ([5]; read-out: MBC): 132 µg/mL (≈ 199 µM)
- MBC [6]: 132 µg/mL (≈ 199 µM)
- MBC ([7]; read-out: MBC): 132 µg/mL (≈ 199 µM)
- MBC ([8]; read-out: MBC): 62.5 µg/mL (≈ 94.1 µM)
- MBC [9]: 66.4 µg/mL (≈ 100 µM)
- MBC ([10]; read-out: MBC): > 133 µg/mL
- MBC [11]: > 132 µg/mL
- MBC ([12]; read-out: MBC): > 133 µg/mL
- MBC ([13]; read-out: MBC): > 132 µg/mL
- MBC [14]: > 132 µg/mL
- MBC ([15]; read-out: MBC): 132 µg/mL (≈ 199 µM)
- MBC ([16]; Staphylococcus aureus, S. aureus (ATCC6538), read-out: MBC): 66.4 µg/mL (≈ 100 µM)
- Selectivity Index (SI) ([16]; ratio IC50 (THP-I) / MIC against S. aureus): 17
- MBC [17]: 132 µg/mL (≈ 199 µM)
- MBC [18]: > 133 µg/mL
- MBC ([19]; read-out: MBC): 66.4 µg/mL (≈ 100 µM)
- MBC [21]: > 61.2 µg/mL
- MBC ([22]; Escherichia coli, E. coli (ATCC25922), read-out: MBC): 66.4 µg/mL (≈ 100 µM)
- Selectivity Index (SI) ([22]; ratio IC50 (THP-I) / MIC for E. coli): 2
- MBC [23]: 133 µg/mL (≈ 200 µM)
- MBC [24]: > 132 µg/mL
